Data on 28 compounds can be found in patent US10239887B2, “Positive allosteric modulators of the muscarinic acetylcholine receptor M4” (Vanderbilt University, priority 2016, dated 2019).

Structures can show the parent of a compound that is named as a salt. Where two headings read alike, the source gives them in different places.

This assay concerns the target T1, human mAChR M4 (Homo sapiens, UniProt P08173).
T1 sequence (P08173 1-479): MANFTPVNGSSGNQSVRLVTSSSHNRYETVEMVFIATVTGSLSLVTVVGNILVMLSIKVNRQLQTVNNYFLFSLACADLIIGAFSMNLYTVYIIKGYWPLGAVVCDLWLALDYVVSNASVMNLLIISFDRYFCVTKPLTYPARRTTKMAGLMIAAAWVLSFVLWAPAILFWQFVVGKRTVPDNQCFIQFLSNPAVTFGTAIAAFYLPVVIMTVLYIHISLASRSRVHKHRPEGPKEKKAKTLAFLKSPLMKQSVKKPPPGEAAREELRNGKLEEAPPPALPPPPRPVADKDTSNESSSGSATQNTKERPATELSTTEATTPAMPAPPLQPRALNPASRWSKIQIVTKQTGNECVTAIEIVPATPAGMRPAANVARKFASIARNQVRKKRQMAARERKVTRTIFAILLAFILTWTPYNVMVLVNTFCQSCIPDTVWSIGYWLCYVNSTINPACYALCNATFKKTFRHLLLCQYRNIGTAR
Briefly: mAChR M4 cell-based functional assay (calcium flux), human M4. As to conditions: for EC50: Human M4 EC50 (nM). (In general: A change in cytosolic calcium serves as a functional read-out for many receptors and channels.)

Setting [1] is: Table 11, calcium flux, PAM activity with EC20 acetylcholine.
Where [2] appears, read: Table 11, % ACh maximum at 30 μM.
[3] abbreviates: Table 10, calcium flux, PAM activity with EC20 acetylcholine.
Setting [4] is: Table 10, % ACh maximum at 30 μM.

For `Cc1nnc2sc3c(NCc4cccc(-n5cccn5)c4)ncnc3c2c1C` [Compound 328, 3,4-dimethyl-N-[(3-pyrazol-1-ylphenyl)methyl]pyrimido [4′,5′:4,5]thieno[2,3-c] pyridazin-8-amine], the concentration giving a half-maximal response (EC50) under setting [1] is 1970 nM. Besides, the maximum response (Emax) under setting [2] amounted to 63.6%. As to `Cc1cc(C)c2c(n1)sc1c(NC3CN(c4ccnc(C5(O)CCC5)c4)C3)ncnc12` [Compound 208, 1-[4-[3-[(7,9-dimethylpyrido [3′,2′:4,5]thieno[3,2-d]pyrimidin-4-yl)amino]azetidin-1-yl]-2-pyridyl]cyclobutanol], the EC50 under setting [3] turned out to be 462 nM. Under setting [4], the maximum response (Emax) is 75.4%. For `Cc1nnc2sc3c(N4CCC(C(C)(C)O)C4)ncnc3c2c1C` (centres unmarked) [Compound 171, 2-[1-(3,4-dimethylpyrimido [4′,5′:4,5]thieno[2,3-c]pyridazin-8-yl)pyrrolidin-3-yl]propan-2-ol] the same measures were 172 nM and 30.9%.

As to `Cc1nnc2sc3c(N4CC(Nc5ccnc(F)c5F)C4)ncnc3c2c1C` [Compound 161, N-[1-(3,4-dimethylpyrimido[4′,5′:4,5]thieno[2,3-c]pyridazin-8-yl)azetidin-3-yl]-2,3-difluoro-pyridin-4-amine; 2,2,2-trifluoroacetic acid], the concentration giving a half-maximal response (EC50) under setting [3] was found to be 84.3 nM. Also, the Emax under setting [4] stood at 80.1%.

In the case of `Cc1nnc2sc3c(NCc4ccc(C(=O)NC(C)C)cc4)ncnc3c2c1C` [Compound 155, 4-[[(3,4-dimethylpyrimido [4′,5′:4,5]thieno[2,3-c]pyridazin-8-yl)amino]methyl]-N-isopropyl-benzamide], the EC50 under setting [3] stood at 174 nM. Also, the Emax under setting [4] was determined as 88.1%. Regarding `Cc1nnc2sc3c(NCc4ccc(CN5CCOCC5)cc4)ncnc3c2c1C` [Compound 108, 3,4-dimethyl-N-[[4-(morpholinomethyl)phenyl]methyl]pyrimido[4′,5′:4,5] thieno[2,3-c] pyridazin-8-amine hydrochloride], the Emax was found to be 76.8%. Under setting [3], the EC50 came out at 148 nM. As to `Cc1c(Cl)cnc2sc3c(NCc4ccc(C(=O)N(C)C)cc4)ncnc3c12` [Compound 229, 4-[[(8-chloro-9-methyl-pyrido [3′,2′:4,5]thieno[3,2-d]pyrimidin-4-yl)amino]methyl]-N,N-dimethyl-benzamide], the 50% effective concentration (EC50) under setting [3] is 1920 nM. The maximal response (Emax) under setting [4] worked out at 54.5%. The matching figures for `COCC1CN(c2ncnc3c2sc2ncc(Cl)c(C)c23)C1` [Compound 218, 8-chloro-4-[3-(methoxymethyl)azetidin-1-yl]-9-methyl-pyrido [3′,2′:4,5]thieno[2,3-d] pyrimidine]: 1020 nM and 51.3%. For `Cc1nnc2sc3c(N4CC(NC(=O)c5ccncc5)C4)ncnc3c2c1C` [Compound 97, N-[1-(3,4-dimethylpyrimido [4′,5′:4,5]thieno[2,3-c]pyridazin-8-yl)azetidin-3-yl]pyridine-4-carboxamide hydrochloride] the same measures were 1130 nM and 51.7%.

In the case of `Cc1nnc2sc3c(N4CC(Oc5cnn(C)c5)C4)ncnc3c2c1C` [Compound 357, 3,4-dimethyl-8-[3-(1-methylpyrazol-4-yl)oxyazetidin-1-yl]pyrimido [4′,5′:4,5]thieno[2,3-c] pyridazine dihydrochloride], under setting [1], the EC50 came to 1400 nM. Under setting [2], the Emax came to 41.3%. Consider `[2H]C([2H])([2H])C(O)(c1ccc(CNc2ncnc3c2sc2nnc(C)c(C)c23)cc1)C([2H])([2H])[2H]` [Compound 352, 1,1,1,3,3,3-hexadeuterio-2-[4-[[(3,4-dimethylpyrimido [4′,5′:4,5]thieno[2,3-c]pyridazin-8-yl)amino]methyl]phenyl]propan-2-ol], for which the maximal response (Emax) under setting [2] was determined as 103%. In the case of `Cc1nnc2sc3c(NCc4ccc(C(=O)N(C)C5CC5)cc4)ncnc3c2c1C` [Compound 132, N-cyclopropyl-4-[[(3,4-dimethylpyrimido [4′,5′:4,5]thieno[2,3-c]pyridazin-8-yl)amino]methyl]-N-methyl-benzamide], the concentration giving a half-maximal response (EC50) under setting [3] was determined as 309 nM. In addition, the Emax under setting [4] is 90.4%. The matching figures for `Cc1cc(C)c2c(n1)sc1c(N3CC(F)(F)C3)ncnc12` [Compound 198, 4-(3,3-difluoroazetidin-1-yl)-7,9-dimethyl-pyrido[3′,2′:4,5] thieno[3,2-d]pyrimidine]: 456 nM and 68.7%. The matching figures for `Cc1nnc2sc3c(N4CC(O)(C5CC5)C4)ncnc3c2c1C` [Compound 103, 3-cyclopropyl-1-(3,4-dimethylpyrimido [4′,5′:4,5]thieno[2,3-c]pyridazin-8-yl)azetidin-3-ol]: 122 nM and 80.3%.

For `Cc1cc(O[C@H]2CCN(c3ncnc4c3sc3nnc(C)c(C)c34)C2)ccn1` [Compound 330, 3,4-dimethyl-8-[(3S)-3-[(2-methyl-4-pyridyl)oxy]pyrrolidin-1-yl]pyrimido [4′,5′:4,5]thieno[2,3-c] pyridazine], the EC50 under setting [1] was found to be 111 nM. Moreover, under setting [2], the maximal response (Emax) turned out to be 74.4%.

`Cc1nnc2sc3c(NCc4ccc(F)c(C(=O)NC5CC(F)(F)C5)c4)ncnc3c2c1C` [Compound 184, N-(3,3-difluorocyclobutyl)-5-[[(3,4-dimethylpyrimido [4′,5′:4,5]thieno[2,3-c]pyridazin-8-yl)amino]methyl]-2-fluoro-benzamide]: the concentration giving a half-maximal response (EC50) under setting [3] was 340 nM. Also, the maximal response (Emax) under setting [4] is 107%. Take `COc1ccc(CNc2ncnc3c2oc2nc(C)c(Cl)c(C)c23)cc1F` [Compound 253, 8-chloro-N-[(3-fluoro-4-methoxy-phenyl)methyl]-7,9-dimethyl-pyrido [3′,2′:4,5]furo[3,2-d] pyrimidin-4-amine hydrochloride]: the EC50 (Table 10, unit μM (bounds)) is > 10000 nM. The Emax under setting [4] worked out at 41.9%. On to `Cc1nc2oc3c(NC4CC4c4ccc(F)c(F)c4)ncnc3c2c(C)c1Cl` (centres unmarked) [Compound 247, 8-chloro-N-[2-(3,4-difluorophenyl)cyclopropyl]-7,9-dimethyl-pyrido [3′,2′:4,5]furo[3,2-d] pyrimidin-4-amine hydrochloride], for which the concentration for a half-maximal effect (EC50) under setting [3] worked out at 7840 nM. In addition, the maximum response (Emax) under setting [4] came out at 70%. In the case of `CCC(C)(O)c1ccc(CNc2ncnc3c2sc2nnc(C)c(C)c23)c(F)c1` (centres unmarked) [Compound 115, 2-[4-[[(3,4-dimethylpyrimido [4′,5′:4,5]thieno[2,3-c]pyridazin-8-yl)amino]methyl]-3-fluoro-phenyl]butan-2-ol], the concentration for a half-maximal effect (EC50) under setting [3] came to 916 nM. In addition, the maximum response (Emax) under setting [4] amounted to 72.3%. As for `Cc1c(Cl)cnc2sc3c(N4CC5CC5C4)ncnc3c12` (centres unmarked) [Compound 219, 4-(3-azabicyclo[3.1.0]hexan-3-yl)-8-chloro-9-methyl-pyrido [3′,2′:4,5]thieno[3,2-d] pyrimidine], the EC50 under setting [3] was 555 nM. For the same compound, under setting [4], the Emax is 47.8%. For `CCNc1ncnc2c1oc1nc(C)c(Cl)c(C)c12` [Compound 287, 8-chloro-N-ethyl-7,9-dimethyl-pyrido[3′,2′:4,5]furo[3,2-d]pyrimidin-4-amine hydrochloride] the same measures were 1250 nM and 40.6%. As to `[2H]C([2H])([2H])OC(C)(C)c1ccc(CNc2ncnc3c2sc2nnc(C)c(C)c23)cc1` [Compound 370, 3,4-dimethyl-N-[[4-[1-methyl-1-(trideuteriomethoxy)ethyl]phenyl]methyl] pyrimido[4′,5′:4,5]thieno [2,3-c]pyridazin-8-amine], the EC50 under setting [1] was found to be 326 nM. Also, the maximal response (Emax) under setting [2] was 93.1%.

Turning to `Cc1nc2sc3c(N4CC5(COC5)C4)ncnc3c2c(C)c1Cl` [Compound 260, 6-(8-chloro-7,9-dimethyl-pyrido [3′,2′:4,5]thieno[3,2-d]pyrimidin-4-yl)-2-oxa-6-azaspiro[3.3]heptane hydrochloride], the Emax under setting [4] came out at 70.9%. Still for that read-out and setting: in the case of `Cc1nnc2oc3c(NCc4cccc(C(C)(C)O)c4)ncnc3c2c1C` [Compound 301, 2-[3-[[(3,4-dimethylpyrimido [4′,5′:4,5]furo[2,3-c]pyridazin-8-yl)amino]methyl]phenyl]propan-2-ol] it was 63.4%. `Cc1nnc2sc3c(NC4CN(c5ncc(C6CC6)cc5Cl)C4)ncnc3c2c1C` [Compound 82, N-[1-(3-chloro-5-cyclopropyl-2-pyridyl)azetidin-3-yl]-3,4-dimethyl-pyrimido [4′,5′:4,5]thieno[2,3-c] pyridazin-8-amine]: the EC50 (Table 10, unit μM (bounds)) is > 10000 nM. Moreover, the maximum response (Emax) under setting [4] stood at 50.1%. Take `Cc1nc2sc3c(NC4CN(c5ccnc(C6(O)CCC6)c5)C4)ncnc3c2c(C)c1Cl` [Compound 239, 1-[4-[3-[(8-chloro-7,9-dimethyl-pyrido [3′,2′:4,5]thieno[3,2-d]pyrimidin-4-yl)amino]azetidin-1-yl]-2-pyridyl]cyclobutanol]: the EC50 under setting [3] came out at 1920 nM. Further, the maximal response (Emax) under setting [4] stood at 72.3%. For the compound `Cc1nnc2sc3c(N4CC(Oc5ccc(C#N)nc5)C4)ncnc3c2c1C` [Compound 355, 5-[1-(3,4-dimethylpyrimido[4′,5′:4,5]thieno[2,3-c]pyridazin-8-yl)azetidin-3-yl]oxypyridine-2-carbonitrile dihydrochloride], under setting [1], the EC50 was 1310 nM. Also, the Emax under setting [2] worked out at 49.2%. As to `Cc1nnc2sc3c(NCc4ccc(F)c(C(=O)NC5CC(F)C5)c4)ncnc3c2c1C` (centres unmarked) [Compound 183, 5-[[(3,4-dimethylpyrimido [4′,5′:4,5]thieno[2,3-c]pyridazin-8-yl)amino]methyl]-2-fluoro-N-(3-fluorocyclobutyl) benzamide], under setting [3], the EC50 came out at 505 nM. The Emax under setting [4] was 99.7%.

As a reminder, the EC50 is the midpoint of the concentration-response curve. As usually defined, the Emax is the maximal effect, on the per cent scale that the assay sets.
